Experimental data reported in ChEMBL document CHEMBL1201862, “PubChem BioAssay data set” (2004).
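1) Cells in 96-well plates. 2) Compound, 48 h, 5 concentrations. 3) Linear interpolation between surrounding doses. 4) Unreached endpoint = highest concentration. Here, GI50 denotes the concentration required for 50% inhibition of growth.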 Active and inactive are the calls of the source. Cut-off read from the data, not from the text of the source: active = GI50 up to about 1.1 µM and inactive = higher.

Key:
Assay in all cases: NCI-60 cell line screen, 48 h
Hs-578T = test system: Hs-578T
SK-MEL-5 = test system: SK-MEL-5
A549 = test system: A549
SK-OV-3 = test system: SK-OV-3
SW-620 = test system: SW-620
KM-20L2 = test system: KM-20L2
CCRF-CEM = test system: CCRF-CEM
HCT-15 = test system: HCT-15
NCI-H522 = test system: NCI-H522
OVCAR-8 = test system: OVCAR-8
MDA-MB-231 = test system: MDA-MB-231
U-251 = test system: U-251
K562 = test system: K562
UACC-62 = test system: UACC-62
SNB-75 = test system: SNB-75
OVCAR-3 = test system: OVCAR-3
UACC-257 = test system: UACC-257
SK-MEL-2 = test system: SK-MEL-2
DMS-273 = test system: DMS-273
DU-145 = test system: DU-145

SMILES	GI50 (Hs-578T)	GI50 (SK-MEL-5)	GI50 (A549)	GI50 (SK-OV-3)	GI50 (SW-620)	GI50 (KM-20L2)	GI50 (CCRF-CEM)	GI50 (HCT-15)	GI50 (NCI-H522)	GI50 (OVCAR-8)	GI50 (MDA-MB-231)	GI50 (U-251)	GI50 (K562)	GI50 (UACC-62)	GI50 (SNB-75)	GI50 (OVCAR-3)	GI50 (UACC-257)	GI50 (SK-MEL-2)	GI50 (DMS-273)	GI50 (DU-145)
CC(O)CCC(=O)c1ccoc1 (stereo not drawn)	5120 µM (inactive)	4560 µM (inactive)	3940 µM (inactive)	6970 µM (inactive)	> 9750 µM (inactive)	> 9160 µM (inactive)	5650 µM (inactive)	7660 µM	3680 µM (inactive)	6840 µM (inactive)	> 7830 µM (inactive)	6780 µM (inactive)	6180 µM (inactive)	5210 µM (inactive)	3500 µM (inactive)	3610 µM (inactive)	5130 µM (inactive)	7710 µM (inactive)	5450 µM (inactive)	8200 µM (inactive)
COc1ccc(/C(=N\NC(=S)NN)C(c2ccc(OC)cc2)C2C(=O)Oc3ccccc32)cc1 (stereo not drawn)		> 10 µM (inactive)	> 10 µM (inactive)	> 10 µM (inactive)	> 10 µM (inactive)	> 10 µM (inactive)	64.9 µM (inactive)	> 10 µM	65.5 µM (inactive)	> 10 µM (inactive)		> 10 µM (inactive)	> 10 µM (inactive)	> 10 µM (inactive)	> 10 µM (inactive)	> 10 µM (inactive)	> 10 µM (inactive)	> 10 µM (inactive)	> 10 µM (inactive)	
CC(C)C(/N=C1\CC2CCC1(C(=O)Nc1ccccc1O)C2(C)C)c1ccccc1 (stereo not drawn)		6.44 µM (inactive)	> 10 µM (inactive)	> 10 µM (inactive)	4.8 µM (inactive)	> 10 µM (inactive)	> 10 µM (inactive)	> 10 µM	6.58 µM (inactive)	> 10 µM (inactive)		> 10 µM (inactive)	> 10 µM (inactive)	> 10 µM (inactive)	> 10 µM (inactive)	> 10 µM (inactive)	5.89 µM (inactive)	> 10 µM (inactive)	> 10 µM (inactive)	
CC12CCC(=O)N1c1cc([N+](=O)[O-])ccc1N2 (stereo not drawn)		> 100 µM (inactive)	> 100 µM (inactive)	> 100 µM (inactive)	> 100 µM (inactive)	> 100 µM (inactive)	> 100 µM (inactive)	> 100 µM	> 100 µM (inactive)	> 100 µM (inactive)		> 100 µM (inactive)	> 100 µM (inactive)	> 100 µM (inactive)	> 100 µM (inactive)	> 100 µM (inactive)	> 100 µM (inactive)	> 100 µM (inactive)	> 100 µM (inactive)	
Cc1cc(C)nc(/C(=N\NC(N)=O)C(=O)Nc2nc3ccc(C)cc3s2)c1		> 100 µM (inactive)	> 100 µM (inactive)	> 100 µM (inactive)	> 100 µM (inactive)	> 92.3 µM (inactive)	> 48.1 µM (inactive)	> 70 µM	> 93.1 µM (inactive)	> 100 µM (inactive)		> 100 µM (inactive)	> 61.4 µM (inactive)	> 100 µM (inactive)	> 100 µM (inactive)	> 100 µM (inactive)	> 100 µM (inactive)	> 100 µM (inactive)	> 58.1 µM (inactive)	
C#CC(C)(C)OCCCCOc1cc(O)c2c(=O)c3ccccc3n(C)c2c1		66.5 µM (inactive)	> 100 µM (inactive)	> 100 µM (inactive)	> 100 µM (inactive)	31.3 µM (inactive)	> 100 µM (inactive)	> 100 µM	> 100 µM (inactive)	> 100 µM (inactive)		> 100 µM (inactive)	> 100 µM (inactive)	> 100 µM (inactive)	84.5 µM (inactive)	> 100 µM (inactive)	> 100 µM (inactive)	> 100 µM (inactive)	77.8 µM (inactive)	
Cn1cnc([N+](=O)[O-])c1Sc1nc(N)nc2c1ncn2C1OC(CO)C(O)C1O (stereo not drawn)	1.97 µM (inactive)	6.22 µM (inactive)	11 µM (inactive)	3.48 µM (inactive)	28.1 µM (inactive)	3.06 µM (inactive)	3.15 µM (inactive)	6.84 µM	9.38 µM (inactive)	2.51 µM (inactive)	0.783 µM (active)	21.7 µM (inactive)	5.13 µM (inactive)	2.53 µM (inactive)	6.44 µM (inactive)	4.9 µM (inactive)	15.2 µM (inactive)	0.497 µM (active)	4.17 µM (inactive)	2.36 µM (inactive)
COc1cc(/C=C/c2ccc(/C=C/c3cc(OC)c(OC)c(OC)c3)cc2)cc(OC)c1OC	18.9 µM (inactive)	34.4 µM (inactive)	40.9 µM (inactive)	6 µM (inactive)	> 84.9 µM (inactive)	20.8 µM (inactive)	> 100 µM (inactive)	> 100 µM	8.11 µM (inactive)	12.2 µM (inactive)	19.9 µM (inactive)	13.3 µM (inactive)	96.2 µM (inactive)	7.89 µM (inactive)	6.34 µM (inactive)	25.2 µM (inactive)	58.7 µM (inactive)	20.7 µM (inactive)	14.6 µM (inactive)	88.7 µM (inactive)
Cc1c(C(=O)CSc2nc3ccccc3c(=O)n2-c2ccccc2)c(=O)n(-c2ccccc2)n1C		31.6 µM (inactive)	64.9 µM (inactive)	19.3 µM (inactive)	> 100 µM (inactive)	> 100 µM (inactive)	> 100 µM (inactive)	> 100 µM	27.2 µM (inactive)			22.4 µM (inactive)			60.8 µM (inactive)	27.6 µM (inactive)	47.3 µM (inactive)	> 100 µM (inactive)	68.2 µM (inactive)	
N#C/C(=C\c1cc(O)cc(O)c1)C(N)=O			> 100 µM (inactive)	> 100 µM (inactive)	> 100 µM (inactive)	> 100 µM (inactive)	> 100 µM (inactive)	> 100 µM	21 µM (inactive)	> 100 µM (inactive)		> 100 µM (inactive)	> 100 µM (inactive)	> 100 µM (inactive)	22 µM (inactive)	> 100 µM (inactive)	> 100 µM (inactive)	> 100 µM (inactive)	> 100 µM (inactive)	
O=C(NCCCl)SCCO			> 100 µM (inactive)	> 100 µM (inactive)	> 100 µM (inactive)	> 100 µM (inactive)	> 100 µM (inactive)	> 100 µM	> 100 µM (inactive)	> 100 µM (inactive)		> 100 µM (inactive)	> 100 µM (inactive)	> 100 µM (inactive)	> 100 µM (inactive)	> 100 µM (inactive)	> 100 µM (inactive)	> 100 µM (inactive)	> 100 µM (inactive)	
c1ccc2c(C3NCCc4nc[nH]c43)cccc2c1 (stereo not drawn)		> 100 µM (inactive)	> 100 µM (inactive)	> 100 µM (inactive)	> 100 µM (inactive)	> 100 µM (inactive)	> 100 µM (inactive)	> 100 µM	98.4 µM (inactive)	> 100 µM (inactive)		> 100 µM (inactive)	> 100 µM (inactive)	> 100 µM (inactive)	> 100 µM (inactive)	> 100 µM (inactive)	> 100 µM (inactive)	> 100 µM (inactive)	> 100 µM (inactive)	
